Assay results from patent US9290440B2, “Bicyclic compound” (TOA EIYO LTD., priority 2012, dated 2016).
Like-named read-outs stand apart in the source and are kept apart here.

Key:
[1] = biological target: T1, human sGC α subunit and β subunit (Homo sapiens, UniProt Q02153); assay: Maximum effect of sGC activating function (Ca2+ fluorescence in CHO-K1 cells expressing human sGC and mouse CNGA2); assay type: cell-based; conditions: increase ratio of sGC activity vs control solution at 10 μmol/L test compound
T1 construct: expressed in transfected cells
T1 sequence (Q02153 1-619): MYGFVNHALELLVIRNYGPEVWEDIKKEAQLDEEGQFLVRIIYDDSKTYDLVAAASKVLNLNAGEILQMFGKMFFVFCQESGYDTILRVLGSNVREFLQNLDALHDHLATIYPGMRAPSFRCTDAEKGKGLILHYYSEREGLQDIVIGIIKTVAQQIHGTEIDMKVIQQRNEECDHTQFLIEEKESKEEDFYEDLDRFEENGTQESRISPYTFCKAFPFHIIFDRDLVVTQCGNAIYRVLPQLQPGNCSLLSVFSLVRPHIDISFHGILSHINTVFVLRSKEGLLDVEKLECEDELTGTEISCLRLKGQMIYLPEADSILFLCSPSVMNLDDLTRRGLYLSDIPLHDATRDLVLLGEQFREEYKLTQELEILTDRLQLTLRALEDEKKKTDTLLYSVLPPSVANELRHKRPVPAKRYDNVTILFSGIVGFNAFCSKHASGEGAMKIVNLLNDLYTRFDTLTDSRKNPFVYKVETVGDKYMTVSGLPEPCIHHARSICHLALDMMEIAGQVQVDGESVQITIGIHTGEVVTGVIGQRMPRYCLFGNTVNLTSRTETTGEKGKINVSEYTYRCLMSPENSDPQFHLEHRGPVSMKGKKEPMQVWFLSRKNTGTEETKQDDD
T1 sequence (Q02108 1-690 partner): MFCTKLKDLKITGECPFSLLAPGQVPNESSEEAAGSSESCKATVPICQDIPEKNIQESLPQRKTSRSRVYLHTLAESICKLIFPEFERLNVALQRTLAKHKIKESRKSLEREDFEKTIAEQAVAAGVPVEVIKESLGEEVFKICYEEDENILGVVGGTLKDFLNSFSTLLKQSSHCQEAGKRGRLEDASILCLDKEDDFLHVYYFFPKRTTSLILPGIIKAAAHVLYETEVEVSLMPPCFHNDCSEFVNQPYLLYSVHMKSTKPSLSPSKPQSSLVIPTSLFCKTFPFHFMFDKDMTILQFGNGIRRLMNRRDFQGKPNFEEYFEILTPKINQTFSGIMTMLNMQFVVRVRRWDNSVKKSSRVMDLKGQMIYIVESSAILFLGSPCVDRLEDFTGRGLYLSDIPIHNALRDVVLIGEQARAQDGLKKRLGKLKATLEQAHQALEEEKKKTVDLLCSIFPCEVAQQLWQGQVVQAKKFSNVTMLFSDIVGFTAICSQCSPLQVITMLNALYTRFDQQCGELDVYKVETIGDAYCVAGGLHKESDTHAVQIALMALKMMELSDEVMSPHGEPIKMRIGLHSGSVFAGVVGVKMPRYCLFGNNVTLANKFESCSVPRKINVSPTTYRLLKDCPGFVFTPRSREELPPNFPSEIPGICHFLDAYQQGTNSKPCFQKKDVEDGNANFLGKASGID
Protocol: (§1) For the assay, Chinese hamster ovary cells (CHO-K1 cells) in which human sGC α subunit and β subunit and mouse cyclic nucleotide gated channel (CNGA2) are stably expressed were used.
(§2) CHO-K1 cells in which human sGC and mouse CNGA2 are stably expressed were cultured at 37° C. in F-12 medium containing 10% (v/v) fetal bovine serum (FBS), penicillin (100 U/mL), streptomycin (100 μg/mL), G418 (250 μg/mL), and zeocin (250 μg/mL). The cells were suspended in the culture medium and seeded onto a 96-well plate, and then cultured at 37° C. for 24 hours. After washing with assay buffer 1 (140 mmol/L sodium chloride, 5 mmol/L potassium chloride, 0.5 mmol/L magnesium chloride, 0.01 mmol/L calcium chloride, 10 mmol/L glucose, 0.4 mmol/L magnesium sulfate, 10 mmol/L 4-(2-hydroxyethyl)piperazin-1-ylethane sulfonic acid, and 125 μmol/L sulfinpyrazone, pH 7.4), an indicator solution in which FURA2-AM as a fluorescent Ca^2+ indicator is dissolved at concentration of 5 μmol/L in assay buffer 1 was added followed by culture for 60 minutes at 37° C. The indicator solution was removed. After washing with assay buffer 1, the test compound solution was added and incubated for 10 minutes at room temperature. The plate was placed in a fluorometer (Flex Station II, Molecular Devices, LLC), and then the intracellular calcium concentration was measured as fluorescence intensity ratio which is obtained from each excitation wavelength (excitation wavelength of 340 nm and 380 nm and detection wavelength of 510 nm).
(§3) The test compound solution was prepared by dissolving each of the test compounds in DMSO to a concentration of 10 mmol/L, and then adding the assay buffer 2 (140 mmol/L sodium chloride, 5 mmol/L potassium chloride, 0.5 mmol/L magnesium chloride, 1 mmol/L calcium chloride, 10 mmol/L glucose, 0.4 mmol/L magnesium sulfate, 10 mmol/L 4-(2-hydroxyethyl)piperazin-1-ylethane sulfonic acid, 125 μmol/L sulfinpyrazone, 100 μmol/L isobutylmethylxanthine, 10 μmol/L 1H-[1,2,4]-oxadiazole[4,3-a]quinoxalin-1-one (hereinbelow, ODQ), pH 7.4) for dilution to have test concentration of 10 μmol/L. For the evaluation of a case in which ODQ is not contained, the same evaluation was performed except that ODQ is excluded from assay buffer 2. As a control solution, a DMSO solution was used instead of the test compound solution.
(§4) The activity of the test compound corresponds to the increase ratio (%) of the sGC activity at the time of adding the test compound solution with respect to the sGC activity at the time of adding the control solution, and it was calculated by dividing the fluorescence intensity ratio at the time of adding the test compound by the fluorescence intensity ratio of the control solution and subtracting the sGC activity (100%) at the time of adding the control solution.
In this assay, intracellular cGMP concentration increases as sGC is activated, and according to opening of CNGA2 following the increase of cGMP, intracellular Ca^2+ concentration increases. Thus, SGC activation can be measured by following the change in intracellular Ca^2+ concentration. […] Thus, in the absence of ODQ, the maximum sGC activating function including the heme-dependent activation can be evaluated while the heme-independent sGC activating function can be evaluated in the presence of ODQ.

[2] = biological target: T1, human sGC α subunit and β subunit; assay: Heme-independent property of sGC activating function (EC50 ratio, CHO-K1 cells expressing human sGC and mouse CNGA2); assay type: cell-based; conditions: EC50 in the absence of ODQ divided by EC50 in the presence of ODQ, sGC activation
Protocol: as §1, §2, §3, §4
For the representative compounds, activity was measured in the same manner as Test Example 1 at each test concentration of 0.0001, 0.001, 0.003, 0.01, 0.03, 0.1, 1, and 10 μmol/L.
The degree of heme-independent property of each test compound with regard to sGC activating function was obtained by dividing, for EC50 measured from the concentration-activation curve which has been established from the above, EC50 in the absence of ODQ by EC50 in the presence of ODQ. Specifically, the smaller the EC50 ratio is, the less the change in sGC activating function is, the change in the function being caused by the presence or absence of ODQ, and thus it is found to be more heme-independent.
EC50 value was obtained by measuring the activity of each compound to be tested at concentrations of 0.0001, 0.001, 0.003, 0.01, 0.03, 0.1, 1, and 10 μmol/L and performing the calculation using four-parameter logistics model using Assay Explorer (Accelrys).

[3] = ODQ not contained, read-out: Emax (%) ODQ− (Heme-dependent)
[4] = with 10 μmol/L ODQ, read-out: Emax (%) ODQ+ (Heme-independent)

Emax at 10 µM [1, 3] [%]	Emax at 10 µM [1, 4] [%]	EC50 Ratio (ODQ−/ODQ+) [2]	Structure (SMILES)
97.5	109	2.67	O=C(O)CCCCN(CCc1ccccc1OCc1ccc(CCc2ccccc2)cc1)C1CCCc2cc(C(=O)O)ccc21 (stereo not drawn) [Example 2, 5-{N-(4-Carboxybutyl)-N-[2-[2-[4-(2-phenylethyl)benzyloxy]phenyl]ethyl]amino}-5,6,7,8-tetrahydronaphthalene-2-carboxylic acid]
64.2	87.2	–	O=C(O)CCCCN(CCc1ccccc1OCc1ccccc1Cl)C1CCCc2cc(C(=O)O)ccc21 (stereo not drawn) [Example 13, 5-{N-(4-Carboxybutyl)-N-[2-[2-(2-chlorobenzyloxyl)phenyl]ethyl]amino}-5,6,7,8-tetrahydronaphthalene-2-carboxylic acid]
119	86.9	–	O=C(O)CCCCN(CCc1ccccc1OC[C@H]1CC[C@H](CCc2ccccc2)CC1)C1CCCc2cc(C(=O)O)ccc21 (stereo partly drawn) [Example 26, 5-{N-(4-Carboxybutyl)-N-[2-[2-[trans-4-(2-phenylethyl)cyclohexylmethoxy]phenyl]ethyl]amino}-5,6,7,8-tetrahydronaphthalene-2-carboxylic acid]
109	140	–	CC(C)(C)c1cccc(COc2ccccc2CCN(CCCCC(=O)O)C2CCCc3cc(C(=O)O)ccc32)c1 (stereo not drawn) [Example 41, 5-{N-[2-[2-(3-tert-Butylbenzyloxy)phenyl]ethyl]-N-(4-carboxybutyl)amino}-5,6,7,8-tetrahydronaphthalene-2-carboxylic acid]

Continued, molecule first:

Structure (SMILES)	Emax at 10 µM [1, 3] [%]	Emax at 10 µM [1, 4] [%]	EC50 Ratio (ODQ−/ODQ+) [2]
O=C(O)CCCCN(CCc1ccccc1OCc1ccc(CCc2ccccc2)cc1)C1CCc2cc(C(=O)O)ccc21 (stereo not drawn) [Example 1, 1-{N-(4-Carboxybutyl)-N-[2-[2-[4-(2-phenylethyl)benzyloxy]phenyl]ethyl]amino}indane-5-carboxylic acid]	85.6	103	2.86
O=C(O)CCCCN(CCc1ccccc1OCc1ccc(CCc2ccccc2)cc1)C1CCCCc2cc(C(=O)O)ccc21 (stereo not drawn) [Example 3, 5-{N-(4-Carboxybutyl)-N-[2-[2-[4-(2-phenylethyl)benzyloxy]phenyl]ethyl]amino}-6,7,8,9-tetrahydro-5H-benzocycloheptene-2-carboxylic acid]	102	111	2.54
O=C(O)CCCCN(CCc1ccccc1OCc1ccc(CCc2ccccc2)cc1)C1CCOc2cc(C(=O)O)ccc21 (stereo not drawn) [Example 4, 4-{N-(4-Carboxybutyl)-N-[2-[2-[4-(2-phenylethyl)benzyloxy]phenyl]ethyl]amino}chromane-7-carboxylic acid]	114	109	2.85
O=C(O)CCCCN(CCc1ccccc1OCc1ccc(CCc2ccccc2)cc1)C1CCSc2cc(C(=O)O)ccc21 (stereo not drawn) [Example 5, 4-{N-(4-Carboxybutyl)-N-[2-[2-[4-(2-phenylethyl)benzyloxy]phenyl]ethyl]amino}thiochromane-7-carboxylic acid]	84.5	86.9	–
O=C(O)CCCCN(CCc1ccccc1OCc1ccc(COc2ccccc2)cc1)C1CCCc2cc(C(=O)O)ccc21 (stereo not drawn) [Example 16, 5-{N-(4-Carboxybutyl)-N-[2-[2-(4-phenoxymethylbenzyloxy)phenyl]ethyl]amino}-5,6,7,8-tetrahydronaphthalene-2-carboxylic acid]	116	97.5	–
O=C(O)CCCCN(CCc1ccccc1OCc1ccc(CSc2ccccc2)cc1)C1CCCc2cc(C(=O)O)ccc21 (stereo not drawn) [Example 17, 5-{N-(4-Carboxybutyl)-N-[2-[2-(4-phenylsulfanylmethylbenzyloxy)phenyl]ethyl]amino}-5,6,7,8-tetrahydronaphthalene-2-carboxylic acid]	115	91.8	–
C#Cc1ccc(COc2ccccc2CCN(CCCCC(=O)O)C2CCCc3cc(C(=O)O)ccc32)cc1 (stereo not drawn) [Example 19, 5-{N-(4-Carboxybutyl)-N-[2-[2-(4-ethynylbenzyloxy)phenyl]ethyl]amino}-5,6,7,8-tetrahydronaphthalene-2-carboxylic acid]	88.7	88	–
O=C(O)CCCCN(CCc1ccccc1OCc1ccc(C#CC2CCCCC2)cc1)C1CCCc2cc(C(=O)O)ccc21 (stereo not drawn) [Example 22, 5-{N-(4-Carboxybutyl)-N-[2-[2-(4-cyclohexylethynylbenzyloxy)phenyl]ethyl]amino}-5,6,7,8-tetrahydronaphthalene-2-carboxylic acid]	108	100	–
O=C(O)CCCCN(CCc1ccccc1OCc1ccc(CCC2CCCCC2)cc1)C1CCCc2cc(C(=O)O)ccc21 (stereo not drawn) [Example 24, 5-{N-(4-Carboxybutyl)-N-[2-[2-[4-(2-cyclohexylethyl)benzyloxy]phenyl]ethyl]amino}-5,6,7,8-tetrahydronaphthalene-2-carboxylic acid]	135	114	–
